Inhibition and melting point data for seven molecules are collected here from US20130065922A1, “NOVEL AMIDES AS FUNGICIDES” (priority 2010, published 2013).

Like-named read-outs stand apart in the source and are kept apart here.

One data set relates to Phytophthora infestans. The experiment in a line: whole plant or invertebrate. The class given is in vivo. The note with it: in Solanum lycopersicum, foliar, read-out: inhibit fungal infestation.
The subject of a further data set is Pythium ultimum. The data set can be described thus: Pythium ultimum/Liquid Culture (Seedling Damping Off). The class given is cell-based. Particulars: Globisporangium ultimum, read-out: inhibit fungal infestation.
Data set [1] concerns Phaeosphaeria nodorum (Septoria nodorum). The data set can be described thus: Phaeosphaeria nodorum (Septoria nodorum)/Wheat/Leaf Disc Preventative (Glume Blotch). The class given is in vivo. Particulars: Parastagonospora nodorum, foliar, read-out: inhibit fungal infestation.
In data set [2] the test system is Blumeria graminis f. Sp. tritici (Erysiphe graminis f. Sp. tritici). The data set can be described thus: Blumeria graminis f. Sp. tritici (Erysiphe graminis f. Sp. tritici)/Wheat/Leaf Disc Preventative (Powdery Mildew on Wheat). The class given is in vivo. Particulars: foliar, read-out: inhibit fungal infestation.
The subject of the next data set is Plasmopara viticola. The experiment in a line: whole plant or invertebrate. The class given is in vivo. The note with it: foliar, read-out: inhibit fungal infestation.
[3] abbreviates: 200 ppm, liquid culture (PDB), 24° C., growth inhibition photometrically 2-3 days after application.
Where [4] appears, read: 200 ppm, wheat leaf segments cv. Kanzler, preventative, 5-7 days after application, untreated control infected to over 80%.
The mark [5] stands for this setting: 200 ppm, wheat leaf segments cv. Kanzler, preventative, 6-8 days after application, untreated control infected to over 80%.

One may read the melting point as the temperature of the solid-liquid transition. On to `CCOc1cnc2c(C)cc(OC(SC)C(=O)NC(C)(C)C#CCOC)cc2c1` (stereo not drawn) [Compound 22], for which the melting point was 107 to 109 °C. Further, the inhibition at 200 ppm in the data set on Phytophthora infestans is not below 80%. In addition, the inhibition at 200 ppm in the data set with Pythium ultimum was not below 80%. Besides, the inhibition at 200 ppm in data set [1] is not below 80%. In addition, the inhibition at 200 ppm in data set [2] is not below 80%. In addition, in the data set on Plasmopara viticola, the inhibition at 200 ppm was not below 80%.
Turning to `C#CC(C)(C)NC(=O)C(Oc1ccc2ncc(OC)cc2c1)SC` (stereo not drawn) [Compound 10, N-(1,1-Dimethyl-prop-2-ynyl)-2-(3-methoxy-quinolin-6-yloxy)-2-methylsulfanyl-acetamide], the melting point was in the range of 152 to 154 °C. Besides, the inhibition at 200 ppm in the data set on Phytophthora infestans was not below 80%. Also, the inhibition at 200 ppm with Pythium ultimum (setting [3]) is not below 80%. For the same molecule, the inhibition at 200 ppm in data set [1] (setting [4]) is not below 80%. Also, the inhibition at 200 ppm in data set [2] (setting [5]) is not below 80%. In the data set with Plasmopara viticola, the inhibition at 200 ppm was not below 80%.
The molecule `C#CC(C)(COC)NC(=O)C(Oc1ccc2ncc(OC)cc2c1)SC` (stereo not drawn) [Compound 5, N-(1-Methoxymethyl-1-methyl-prop-2-ynyl)-2-(3-methoxy-quinolin-6-yloxy)-2-methylsulfanyl-acetamide] displayed a melting point of 112 to 118 °C. Also, in the data set with Phytophthora infestans, the inhibition at 200 ppm is not below 80%. The inhibition at 200 ppm in the data set on Pythium ultimum (setting [3]) is not below 80%. In data set [1] (setting [4]), the inhibition at 200 ppm was not below 80%. In data set [2] (setting [5]), the inhibition at 200 ppm is not below 80%. In addition, in the data set with Plasmopara viticola, the inhibition at 200 ppm is not below 80%.
Regarding `CC#CC(C)(C)NC(=O)C(Oc1ccc2ncc(OC)cc2c1)SC` (stereo not drawn) [Compound 11, N-(1,1-Dimethyl-but-2-ynyl)-2-(3-methoxy-quinolin-6-yloxy)-2-methylsulfanyl-acetamide], the melting point fell in the range of 137 to 139 °C. The inhibition at 200 ppm in the data set with Phytophthora infestans was not below 80%. Moreover, the inhibition at 200 ppm in the data set with Pythium ultimum is not below 80%. In data set [1], the inhibition at 200 ppm is not below 80%. Further, the inhibition at 200 ppm in data set [2] is not below 80%. Besides, the inhibition at 200 ppm in the data set with Plasmopara viticola was not below 80%.
In turn, `CO/N=C/C(C)(C)NC(=O)C(Oc1ccc2ncc(SC)cc2c1)SC` (stereo not drawn) [Compound 27, N-(2-Methoxy-imino-1,1-dimethyl-ethyl)-2-methylsulfanyl-2-(3-methylsulfanyl-quinolin-6-yloxy)-acetamide] showed a melting point of 120 to 122 °C. In addition, the inhibition at 200 ppm with Phytophthora infestans was not below 80%. In addition, the inhibition at 200 ppm in the data set on Pythium ultimum (setting [3]) was not below 80%. Further, the inhibition at 200 ppm in data set [1] (setting [4]) was not below 80%. In addition, the inhibition at 200 ppm in data set [2] (setting [5]) is not below 80%. Moreover, the inhibition at 200 ppm with Plasmopara viticola was not below 80%.
Molecule `CCOc1cnc2c(C)cc(OC(SC)C(=O)NC(C)(C)/C=N/OC)cc2c1` (stereo not drawn) [Compound 21, 2-(3-Ethoxy-8-methyl-quinolin-6-yloxy)-N-(2-methoxyimino-1,1-dimethyl-ethyl)-2-methylsulfanyl-acetamide] came in with a melting point of 125 to 126 °C. Moreover, the inhibition at 200 ppm in the data set on Phytophthora infestans is not below 80%. In the data set on Pythium ultimum (setting [3]), the inhibition at 200 ppm is not below 80%. For the same molecule, the inhibition at 200 ppm in data set [1] (setting [4]) was not below 80%. In addition, the inhibition at 200 ppm in data set [2] (setting [5]) is not below 80%. In addition, the inhibition at 200 ppm in the data set on Plasmopara viticola is not below 80%.
`CO/N=C/C(C)(C)NC(=O)C(Oc1cc(C)c2ncc(OC)cc2c1)SC` (stereo not drawn) [Compound 19, N-(2-Methoxyimino-1,1-dimethyl-ethyl)-2-(3-methoxy-8-methyl-quinolin-6-yloxy)-2-methylsulfanyl-acetamide] displayed a melting point of 121 to 124 °C. Further, the inhibition at 200 ppm in the data set with Phytophthora infestans was not below 80%. Further, the inhibition at 200 ppm in the data set with Pythium ultimum (setting [3]) is not below 80%. Besides, the inhibition at 200 ppm in data set [1] (setting [4]) was not below 80%. Moreover, in data set [2] (setting [5]), the inhibition at 200 ppm is not below 80%. In addition, in the data set on Plasmopara viticola, the inhibition at 200 ppm is not below 80%.
